# In patent publication US20210260033A1, “COMBINED THERAPY WITH ICOS BINDING PROTEINS AND […] INHIBITORS” (GLAXOSMITHKLINE INTELLECTUAL PROPERTY DEVELOPMENT LIMITED, priority 2018, published 2021):
# Where two headings read alike, the source gives them in different places.
# Legend:
# AML cell lines [1] = assay: 6-day growth-death assay (Cell Titer Glo); assay type: cell-based, human; conditions: 10 cell lines
# Description: (§4) The growth of all cell lines was evaluated over time across a wide range of seeding densities to identify conditions that permitted proliferation throughout the entire 6-day assay. Cells were plated at the optimal seeding density and after overnight incubation, a 20-point 2-fold titration of compound was added and plates were incubated for 6 days. A replicate plate of cells was harvested at the time of compound addition to quantify the starting number of cells (T0). Values obtained after the 6 day treatment were expressed as a function of the T0 value and plotted against compound concentration. The T0 value was normalized to 100% and represents the number of cells at the time of compound addition. The data were fit with a 4 parameter equation to generate a concentration response curve and the growth IC50 (gIC50) was determined. The gIC50 is the midpoint of the ‘growth window’, the difference between the number of cells at the time of compound addition (T0) and the number of cells after 6 days (DMSO control). The growth-death assay can be used to quantify the net population change, clearly defining cell death (cytotoxicity) as fewer cells compared to the number at the time of compound addition (T0).
# lymphoma cell lines [2] = assay: 6-day growth-death assay (Cell Titer Glo); assay type: cell-based, human; conditions: Hodgkin's and non-Hodgkin's subtypes
# Description: as §4
# kidney cancer cell lines = assay: 6-day growth-death assay (Cell Titer Glo); assay type: cell-based, human; conditions: renal cell carcinoma lines tested
# Description: as §4
# Toledo DLBCL cells = assay: western analysis of arginine methylation, timecourse; assay type: cell-based, human; conditions: 0.4 uM
# Description: (B) Representative western blots of arginine methylation marks. Regions quantified are denoted by black bars on the right of the gel.
# As predicted, ADMA methylation decreased while MMA increased upon compound exposure (FIG. 12). […] Given the detection of numerous substrates with varying kinetics, and variability of ADMA levels among DMSO-treated samples, both the full lane and a prominent 45 kDa band were characterized to assess ADMA. Increases in MMA were apparent by 24 hours and near maximal by 48 hours while decreases in the 45 kDa ADMA band required 72-96 hours to achieve maximal effect. Increases in SDMA were apparent after 48 hours of compound exposure and continued to increase through 120 hours, consistent with the potential switch from conversion of MMA to ADMA by Type I PRMTs to SDMA by Type II PRMTs (FIG. 12).
# OCI-Ly1 = system: OCI-Ly1
# Description: (§1) FIG. 18: Propidium iodide FACS analysis of cell cycle in human lymphoma cell lines. […] Data represents the average±SEM of biological replicates, n=2.
# (§2) By day 7, an increase in the sub-G1 population was apparent at concentrations ≥100 nM.
# U2932 = system: U2932
# Description: as §1, §2
# [3] = system: panel of lymphoma cell lines; assay: western dose response of arginine methylation; assay type: cell-based, human; conditions: all lymphoma cell lines evaluated; 72 hours
# Source text: Regions quantified for (B) are denoted by black bars to the left of gels. […] Corresponding gIC50 values in 6-day growth death assay are as indicated in red.
# AML cell lines [4] = assay: 6 and 10 day proliferation assays; assay type: cell-based, human; conditions: day 10 vs day 6
# Source text: (§3) (B) Ymin-T0 at 6 day (light blue) and 10 day (dark blue) with corresponding gIC100 (red points).
# lymphoma cell lines [5] = assay: 6 and 10 day proliferation assays; assay type: cell-based, human; conditions: day 10 vs day 6
# Source text: as §3
# [6] = rat, at 14-day MTD […] mg/kg
# [7] = dog, at 21-day MTD […] mg/kg
# AML cell lines [8] = assay: Methylscan proteomic evaluation of arginine methylation; assay type: cell-based; conditions: AML cell lines treated with the tool compound vs DMSO
# Source text: FIG. 3: Methylscan evaluation of cell lines treated with Compound D. Percent of proteins with methylation changes (independent of directionality of change) are categorized by functional group as indicated.
# To identify putative PRMT1 substrates, a proteomic approach (Methylscan, Cell Signaling Technology) was utilized to identify proteins with changes in arginine methylation states in response to a tool PRMT1 inhibitor, Compound D. Protein fragments from Compound D- and DSMO-treated cell extracts were immunoprecipitated using methyl arginine specific antibodies (ADMA, MMA, SDMA), and peptides were identified by mass spectrometry.
SMILES,number of cell lines in which cytotoxicity was induced (AML cell lines [1]) [cell lines],sensitivity by lymphoma subtype (lymphoma cell lines [2]),cytotoxic response (kidney cancer cell lines),time to maximal decrease of the 45 kDa ADMA band (Toledo DLBCL cells) [h],change of ADMA methylation (Toledo DLBCL cells; up to 120 hours),change of MMA (Toledo DLBCL cells; up to 120 hours),change of SDMA (Toledo DLBCL cells; up to 120 hours),concentration at which sub-G1 effect was evident (OCI-Ly1) [µM],concentration at which sub-G1 effect was evident (U2932) [µM],45 kDa ADMA band [3],effect of extended exposure on potency (gIC50) or cytotoxicity (Ymin-T0) (AML cell lines [4]),effect of extended exposure on potency (gIC50) or cytotoxicity (Ymin-T0) (lymphoma cell lines [5]),Cave (total AUC or exposure) [6] [nM],Cave (total AUC or exposure) [7] [nM],"proteins with changes in arginine methylation states (ADMA, MMA, SDMA) (AML cell lines [8])"
CCOCC1(COCC)CCC(c2n[nH]cc2CN(C)CCNC)CC1 [Compound A],5,equally sensitive,none of the lines tested showed a cytotoxic response,72 to 96,decreased,increased,increase,10,10,decreased to undetectable levels,minimal effects,minimal effects,2100,3200,
CNCCN(C)Cc1c[nH]nc1[C@H]1CC[C@@]2(CC1)CC(C)(C)CO2 [Compound D],,,,,,,,,,,,,,,the majority of substrates identified were transcriptional regulators and RNA processing proteins
